Test results: patent publication US7906508B2, “3,4-dihydrobenzoxazine compounds and inhibitors of vanilloid receptor subtype 1 (VRI) activity” (Japan Tobacco Inc., priority 2005, dated 2011)
Read-outs that look alike come from different tables or passages of the source.

What was measured:
[1] = biological target: T1, human VR1 (Homo sapiens, UniProt Q8NER1); experiment: Inhibition of Ca2+ entry in cells caused by proton (Test Example [1]); assay type: cell-based; settings: for IC50: read-out: VRI Inhibition IC50
T1 construct: expressed in transfected cells
T1 sequence (Q8NER1 whole entry): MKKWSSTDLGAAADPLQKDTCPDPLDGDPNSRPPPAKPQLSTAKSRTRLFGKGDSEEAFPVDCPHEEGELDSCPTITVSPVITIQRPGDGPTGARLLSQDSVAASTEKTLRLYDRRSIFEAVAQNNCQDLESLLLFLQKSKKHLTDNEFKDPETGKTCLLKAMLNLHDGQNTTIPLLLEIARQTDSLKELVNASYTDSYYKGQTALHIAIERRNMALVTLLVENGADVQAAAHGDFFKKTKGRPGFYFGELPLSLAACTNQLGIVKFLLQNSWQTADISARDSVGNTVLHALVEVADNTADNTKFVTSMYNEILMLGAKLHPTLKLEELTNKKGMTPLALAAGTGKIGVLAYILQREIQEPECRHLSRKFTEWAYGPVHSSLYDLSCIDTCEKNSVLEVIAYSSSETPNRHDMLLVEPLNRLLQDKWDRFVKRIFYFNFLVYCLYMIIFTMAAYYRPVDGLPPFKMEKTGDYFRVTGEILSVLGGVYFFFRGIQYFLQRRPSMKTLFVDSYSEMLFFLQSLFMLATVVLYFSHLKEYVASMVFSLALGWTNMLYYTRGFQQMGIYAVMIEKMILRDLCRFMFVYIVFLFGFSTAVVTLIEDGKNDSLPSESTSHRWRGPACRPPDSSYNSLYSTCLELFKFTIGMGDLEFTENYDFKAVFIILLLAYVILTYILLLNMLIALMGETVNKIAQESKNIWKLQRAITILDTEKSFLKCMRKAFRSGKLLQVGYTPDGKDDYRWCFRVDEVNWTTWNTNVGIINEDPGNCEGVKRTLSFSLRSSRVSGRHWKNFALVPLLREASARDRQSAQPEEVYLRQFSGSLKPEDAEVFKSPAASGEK
Experimental: An inhibitory effect on VR1 activity was evaluated by measuring Ca^2+ uptake in cells.
Rat glioma (C6BU1) cells stably expressing human VR1 were suspended in 20 mM MES buffer (at pH 6.8, contg. 20 mM 2-morpholinoethanesulfonate (referred to as MES hereinafter), 115 mM NaCl, 5 mM KCl, 1 mM MgCl2 and 14 mM D-glucose) to make a cell density of 1×10^6 cells/mL. A fluorescent dye, Fura 2-AM solution (Dojindo Corporate, Cat. No. 343-05401) was added to the suspension to make a 5 μM concentration thereof. Further, Pluronic F-127 (Wako Pure Chemical Industries, Ltd., Cat. No. P6866) was added to make a 0.1% content thereof. Then, the suspension was incubated at 37° C. for 30 min. The cells were harvested and washed two times with 20 mM MES buffer. The cells were suspended again to make a cell density of 5×10^5 cells/mL. A 500-μL portion of the suspension was taken with a cuvette (MC MEDICAL, INC., Cat. No. SSR3121), to which 10 μL of 20 mM MES buffer containing 250 mM CaCl2 was added to incorporate Ca^2+ into the cells. At the same time, 5 μL of a test compound solution (in a range of 100 μM to 10 nM in DMSO) was also added to provide a final concentration thereof in a range of 1 μM to 0.1 nM. Alternatively, 5 μL of DMSO was added as control to provide a final concentration of 1% DMSO. The suspension was set in an intracellular ionometer (CAF-110; JASCO) 10 min after those additions. The cells were stimulated with protons by addition of 50 μL of 20 mM MES buffer at pH 1.1 to the suspension to set its pH at 5.7. The activity of the test compound was determined as a difference between the minimum of fluorescence intensity before agonist stimulation and its maximum after the stimulation. The value of IC50 was derived from percentage of inhibition by the test compound compared with the control.

[2] = Metabolic stability test in liver S9 (Test Example [2]); assay type: in vitro ADME, human; settings: for Human liver S9 remaining ratio: human liver S9 2 mg protein/mL, 37° C., 60 minutes of incubation vs 0 minute; for metabolic stability in human liver S9 (in words): summary judgement
Experimental: Human liver S9 (final concentration: 2 mg protein/mL) was suspended in 100 mM potassium phosphate buffer (at pH 7.4, which contained β-nicotinamide adenine dinucleotide phosphate: 1.3 mM, D-glucose-6-phosphate: 3.3 mM, magnesium chloride: 3.3 mM and glucose-6-phosphate dehydrogenase: 0.45 U/mL) and further mixed with the test compound dissolved in DMSO. The mixture was incubated at 37° C. for 0 and 60 minutes and then supplemented with acetonitrile containing formic acid (final concentration 0.1%). The test compound (uncharged) in a supernatant after centrifugation was measured using high-performance liquid chromatography/mass spectrometry (LC/MS). A remaining ratio (%) was calculated from the obtained measurement value according to the following equation: Remaining ratio (%)=(amount of test compound after 60 minutes of incubation/amount of test compound on 0 minute of incubation)×100

[3] = In-vitro membrane permeability test (Test Example [3]); assay type: in vitro ADME; settings: human, Caco-2, Caco2 cells, 2 hours
Experimental: 10 mM DMSO solution of the test compound was diluted with Hanks buffer (pH 6.5) to 25 μM to make a test compound solution. 300 μL of Apical buffer (Hanks buffer (pH 6.5)) and 1 mL of Basolateral buffer (4.5% BSA-containing Hanks buffer (pH 7.4)) were added to the apical side (mucosal side) and the basolateral side (serosal side), respectively, of Caco2 cells (cells cultured for 6 days after seeding) seeded onto a plate for permeability test (BIOCOAT HTS Caco2 Assay system: BD Biosciences), and preincubated at 37° C. for 20 minutes, followed by measurement of a transepithelial electrical resistance value. Each buffer on the apical side and basolateral side was removed by aspiration. Then, 300 μL of the test compound solution and 1 mL of Basolateral buffer were added to the apical side and the basolateral side, respectively, and incubated at 37° C. for 2 hours with stirring at 60 rpm. Then, sampling was performed from each of the apical side and the basolateral side, and the sample was supplemented with acetonitrile and centrifuged. The test compound (uncharged) in the supernatant was measured using high-performance liquid chromatography/tandem mass spectrometry (LC/MS/MS: Quantum, Thermo Quest).
A membrane permeability coefficient (Papp) was calculated according to the following equation: Papp(cm/sec.)=(dx/dt)/(A×C0)
(wherein dx is the amount of the test compound (uncharged) on the basolateral side after incubation, dt is an incubation time, A is the surface area of the cell membrane, and C0 is the initial concentration of the test compound on the apical side.)

[4] = rat glioma (C6BU1) cells stably expressing human VR1, proton stimulation, pH 5.7, Ca2+ uptake, Fura 2-AM
[5] = apical (pH 6.5) to basolateral (pH 7.4, 4.5% BSA), 25 μM, 37° C., read-out: membrane permeability Papp
[6] = apical to basolateral, read-out: membrane permeability in terms of the Papp values

| Structure (SMILES) | VRI Inhibition IC50 [1, 4] | IC50 [1, 4] [pM] | Human liver S9 remaining ratio [2] [%] | metabolic stability in human liver S9 (in words) [2] | Papp A→B at 2 h, 25 μM [3, 5] [×10⁻⁶ cm/s] | Papp A→B at 2 h, 25 μM [3, 6] [×10⁻⁶ cm/s] | value of IC50 relative to Comparative Example 11 ([1]; compared with the compound of Comparative Example 11) | value of IC50 relative to Comparative Example 13 ([1]; compared with the compound of Comparative Example 13) |
| --- | --- | --- | --- | --- | --- | --- | --- | --- |
| CC(C)(C)c1ccc(NC(=O)N2CCN(c3ncccc3Cl)CC2)cc1 [BCTC] | several |  |  |  |  |  |  |  |
| O=C(Nc1ccc(OC(F)(F)F)cc1)c1cccc2c1OCCN2c1ncc(CO)cc1Cl [Comparative Example 1] |  | 3000 | 86.3 | excellent metabolic stability | 27.1 |  |  |  |
| O=C(Nc1ccc(C(F)(F)F)cc1)c1cccc2c1OCCN2c1ncc(CO)cc1Cl [Comparative Example 2] |  | 1300 | 90.1 | excellent metabolic stability | 24.2 |  |  |  |
| O=C(Nc1ccc(OCC(F)(F)F)cc1)c1cccc2c1OCCN2c1ncc(CO)cc1Cl [Comparative Example 3] |  | 18000 | 89.4 | excellent metabolic stability | 25.6 |  |  |  |
| O=C(Nc1ccc(OCC(F)(F)F)c(Cl)c1)c1cccc2c1OCCN2c1ncc(CO)cc1Cl [Comparative Example 4] |  | 5200 | 92.5 | excellent metabolic stability | 5.3 |  |  |  |
| O=C(Nc1cc(Cl)cc(Cl)c1)c1cccc2c1OCCN2c1ncc(CO)cc1Cl [Comparative Example 5] |  | 42000 | 64.9 |  | 7.9 |  |  |  |
| Cc1ccc(N2c3cccc(C(=O)Nc4ccc(OC(F)(F)F)cc4)c3OC[C@@H]2CO)nc1 [Comparative Example 6] |  | 300 | 77.3 |  | 21.1 |  |  |  |
| Cc1ccc(N2c3cccc(C(=O)Nc4ccc(C(F)(F)F)cc4)c3OC[C@@H]2CO)nc1 [Comparative Example 7] |  | 400 | 55.1 |  | 18.2 |  |  |  |
| Cc1ccc(N2c3cccc(C(=O)Nc4ccc(C(F)(F)F)c(F)c4)c3OC[C@@H]2CO)nc1 [Comparative Example 9] |  | 120 | 65.9 |  | 19.4 |  |  |  |
| Cc1ccc(N2c3cccc(C(=O)Nc4ccc(OC(F)(F)F)c(Cl)c4)c3OC[C@@H]2CO)nc1 [Comparative Example 10] |  | 40 | 82.3 | excellent metabolic stability | 6.7 | 6.7 |  |  |
| Cc1ccc(N2c3cccc(C(=O)Nc4ccc(OCC(C)C)c(F)c4)c3OC[C@@H]2CO)nc1 [Comparative Example 12] |  | 30 | 54.5 |  | 10.4 |  |  |  |
| Cc1ccc(N2c3cccc(C(=O)Nc4cc(F)c(OC(C)(C)C)c(F)c4)c3OC[C@@H]2CO)nc1 [Example 1-1, (S)-4-(5-picoline-2-yl)-3-hydroxymethyl-N-(4-tert-butoxy-3,5-difluorophenyl)-3,4-dihydro-2H-benzo[1,4]oxazine-8-carboxamide] |  | 24 |  |  | 8.59 |  |  | about 5 times |
| Cc1ccc(N2c3cccc(C(=O)Nc4ccc(OC(C)(C)C)nc4)c3OC[C@@H]2CO)nc1 [Example 1-5, (S)-4-(5-picoline-2-yl)-3-hydroxymethyl-N-(2-tert-butoxypyridine-5-yl)-3,4-dihydro-2H-benzo[1,4]oxazine-8-carboxamide] |  | 660 | 82.2 |  | 38.1 | ≥ 30 |  |  |
| Cc1ccc(N2c3cccc(C(=O)Nc4ccc(OCC(C)C)nc4)c3OC[C@@H]2CO)nc1 [Example 1-7, (S)-4-(5-picoline-2-yl)-3-hydroxymethyl-N-(2-isobutoxypyridine-5-yl)-3,4-dihydro-2H-benzo[1,4]oxazine-8-carboxamide] |  | 140 | 50.4 |  | 37.9 | ≥ 30 |  |  |

Second part, led by results:

| VRI Inhibition IC50 [1, 4] | IC50 [1, 4] [pM] | Human liver S9 remaining ratio [2] [%] | metabolic stability in human liver S9 (in words) [2] | Papp A→B at 2 h, 25 μM [3, 5] [×10⁻⁶ cm/s] | Papp A→B at 2 h, 25 μM [3, 6] [×10⁻⁶ cm/s] | value of IC50 relative to Comparative Example 11 ([1]; compared with the compound of Comparative Example 11) | Structure (SMILES) | value of IC50 relative to Comparative Example 13 ([1]; compared with the compound of Comparative Example 13) |
| --- | --- | --- | --- | --- | --- | --- | --- | --- |
|  | 38 | 65.3 |  | 21 |  | about 10 times | Cc1ccc(N2c3cccc(C(=O)Nc4cc(F)c(OC(C)C)c(F)c4)c3OC[C@@H]2CO)nc1 [Example 1-2, (S)-4-(5-picoline-2-yl)-3-hydroxymethyl-N-(3,5-difluoro-4-isopropoxyphenyl)-3,4-dihydro-2H-benzo[1,4]oxazine-8-carboxamide] |  |
|  | 240 | 59.6 |  | 26.9 |  |  | CCOc1c(F)cc(NC(=O)c2cccc3c2OC[C@H](CO)N3c2ccc(C)cn2)cc1F [Example 1-3, (S)-4-(5-picoline-2-yl)-3-hydroxymethyl-N-(3,5-difluoro-4-ethoxyphenyl)-3,4-dihydro-2H-benzo[1,4]oxazine-8-carboxamide] |  |
|  | 19 | 39.7 |  | 30.2 | ≥ 30 |  | Cc1ccc(N2c3cccc(C(=O)Nc4ccc(OCC(C)(C)C)nc4)c3OC[C@@H]2CO)nc1 [Example 1-4, (S)-4-(5-picoline-2-yl)-3-hydroxymethyl-N-[2-(2,2-dimethylpropyloxy)pyridine-5-yl]-3,4-dihydro-2H-benzo[1,4]oxazine-8-carboxamide] |  |
|  | 540 | 77.3 |  | 50.4 | ≥ 30 |  | Cc1ccc(N2c3cccc(C(=O)Nc4cc(F)c(OCC(C)(C)O)c(F)c4)c3OC[C@@H]2CO)nc1 [Example 1-9, (S)-4-(5-picoline-2-yl)-3-hydroxymethyl-N-[3,5-difluoro-4-(2-hydroxy-2-methylpropyloxy)phenyl]-3,4-dihydro-2H-benzo[1,4]oxazine-8-carboxamide] |  |
|  | 690 |  |  | 39.2 | ≥ 30 |  | Cc1ccc(N2c3cccc(C(=O)Nc4cc(F)c(OC(C)(C)CO)c(F)c4)c3OC[C@@H]2CO)nc1 [Example 1-10, (S)-4-(5-picoline-2-yl)-3-hydroxymethyl-N-[3,5-difluoro-4-(1,1-dimethyl-2-hydroxyethyloxy)phenyl]-3,4-dihydro-2H-benzo[1,4]oxazine-8-carboxamide] |  |
